Results as given in article doi:10.1101/2023.03.24.534094v2 (biorxiv, 2023).
Where two headings read alike, the source gives them in different places. Values belong to the compound of their own block, whether it stands above or below them.

Columns and labels:
[1] = molecular target: ABL1 (Homo sapiens, UniProt P00519); assay: NanoBRET target engagement; format: cell-based
[2] = molecular target: PAK1 (Homo sapiens, UniProt Q13153); assay: biochemical
[3] = molecular target: T1, EpHA1 (Homo sapiens, UniProt P21709); assay: NanoBRET target engagement; format: cell-based
T1 sequence (P21709 26-976): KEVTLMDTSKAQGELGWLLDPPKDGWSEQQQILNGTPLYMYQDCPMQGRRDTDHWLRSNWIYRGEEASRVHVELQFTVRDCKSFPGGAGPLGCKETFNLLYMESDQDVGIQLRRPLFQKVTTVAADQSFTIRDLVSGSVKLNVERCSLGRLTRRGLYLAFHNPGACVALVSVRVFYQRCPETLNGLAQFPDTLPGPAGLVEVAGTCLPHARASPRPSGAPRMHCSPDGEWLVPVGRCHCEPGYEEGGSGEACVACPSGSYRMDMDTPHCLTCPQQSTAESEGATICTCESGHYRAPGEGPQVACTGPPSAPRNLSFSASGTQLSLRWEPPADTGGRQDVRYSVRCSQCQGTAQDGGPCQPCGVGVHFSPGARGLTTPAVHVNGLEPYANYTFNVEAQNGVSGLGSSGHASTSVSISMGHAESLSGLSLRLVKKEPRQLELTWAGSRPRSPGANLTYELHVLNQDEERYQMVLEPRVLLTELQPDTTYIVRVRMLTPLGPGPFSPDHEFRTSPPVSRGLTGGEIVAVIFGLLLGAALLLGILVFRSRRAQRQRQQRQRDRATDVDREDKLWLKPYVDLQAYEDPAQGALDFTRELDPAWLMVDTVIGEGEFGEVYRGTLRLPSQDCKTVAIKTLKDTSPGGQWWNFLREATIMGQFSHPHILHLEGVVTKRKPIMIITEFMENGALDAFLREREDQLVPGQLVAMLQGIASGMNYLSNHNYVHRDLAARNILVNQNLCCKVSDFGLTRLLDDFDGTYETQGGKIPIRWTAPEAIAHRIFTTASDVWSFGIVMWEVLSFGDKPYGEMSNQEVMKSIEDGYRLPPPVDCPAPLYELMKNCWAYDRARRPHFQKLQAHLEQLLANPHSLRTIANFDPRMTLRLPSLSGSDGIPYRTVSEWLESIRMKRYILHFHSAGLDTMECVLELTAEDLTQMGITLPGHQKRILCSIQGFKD

[4] = molecular target: EpHA3 (Homo sapiens, UniProt P29320); assay: NanoBRET target engagement; format: cell-based
[5] = molecular target: T2, EpHB1 (Homo sapiens, UniProt P54762); assay: NanoBRET target engagement; format: cell-based
T2 sequence (P54762 18-984): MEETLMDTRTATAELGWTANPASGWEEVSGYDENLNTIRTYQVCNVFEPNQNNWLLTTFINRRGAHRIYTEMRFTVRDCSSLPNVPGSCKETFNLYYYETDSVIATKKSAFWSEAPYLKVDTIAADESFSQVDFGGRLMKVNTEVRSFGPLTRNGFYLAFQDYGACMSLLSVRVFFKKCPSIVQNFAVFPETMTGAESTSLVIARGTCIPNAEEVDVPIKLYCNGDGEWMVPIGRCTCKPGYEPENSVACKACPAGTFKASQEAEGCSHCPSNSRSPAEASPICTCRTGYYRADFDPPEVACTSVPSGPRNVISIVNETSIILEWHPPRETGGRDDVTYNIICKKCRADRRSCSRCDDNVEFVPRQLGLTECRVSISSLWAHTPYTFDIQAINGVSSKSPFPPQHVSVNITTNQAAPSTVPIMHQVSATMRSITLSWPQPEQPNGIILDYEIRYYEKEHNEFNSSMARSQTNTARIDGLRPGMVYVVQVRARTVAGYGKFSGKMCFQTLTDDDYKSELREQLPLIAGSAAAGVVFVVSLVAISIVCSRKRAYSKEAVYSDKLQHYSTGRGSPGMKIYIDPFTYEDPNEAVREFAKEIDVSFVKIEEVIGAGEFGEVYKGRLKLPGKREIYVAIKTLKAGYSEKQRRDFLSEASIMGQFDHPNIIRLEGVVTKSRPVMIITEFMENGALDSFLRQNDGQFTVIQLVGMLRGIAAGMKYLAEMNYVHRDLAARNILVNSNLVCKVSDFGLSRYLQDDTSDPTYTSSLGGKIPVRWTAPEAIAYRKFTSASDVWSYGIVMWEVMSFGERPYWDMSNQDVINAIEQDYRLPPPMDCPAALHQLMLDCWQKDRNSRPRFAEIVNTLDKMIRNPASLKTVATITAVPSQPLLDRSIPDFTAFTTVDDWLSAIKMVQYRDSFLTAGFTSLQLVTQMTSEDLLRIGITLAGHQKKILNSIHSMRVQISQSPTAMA

[6] = molecular target: Erk3 (Homo sapiens, UniProt Q16659); assay: biochemical
[7] = molecular target: MST4 (Homo sapiens, UniProt Q9P289); assay: biochemical
[8] = molecular target: T3, MST2 (Homo sapiens, UniProt Q13188); assay: biochemical
T3 sequence (Q13188 1-491): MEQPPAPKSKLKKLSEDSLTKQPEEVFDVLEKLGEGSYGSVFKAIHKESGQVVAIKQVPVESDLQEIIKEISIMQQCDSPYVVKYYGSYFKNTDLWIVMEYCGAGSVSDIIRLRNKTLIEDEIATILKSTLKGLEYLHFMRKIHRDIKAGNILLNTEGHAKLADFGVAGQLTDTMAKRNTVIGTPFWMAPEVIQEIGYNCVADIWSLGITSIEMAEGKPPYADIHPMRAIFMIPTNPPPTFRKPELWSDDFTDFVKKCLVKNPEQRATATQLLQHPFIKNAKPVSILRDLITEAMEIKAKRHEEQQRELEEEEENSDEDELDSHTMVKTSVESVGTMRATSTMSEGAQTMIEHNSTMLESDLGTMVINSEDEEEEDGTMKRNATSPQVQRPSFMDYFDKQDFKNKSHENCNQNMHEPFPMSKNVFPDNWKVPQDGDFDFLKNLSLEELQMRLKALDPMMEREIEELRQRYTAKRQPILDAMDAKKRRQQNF

[9] = intact mode, HEK293T, 37 °C, 2 h, tracer displacement

Sequence of PAK1 (Q13153 whole entry): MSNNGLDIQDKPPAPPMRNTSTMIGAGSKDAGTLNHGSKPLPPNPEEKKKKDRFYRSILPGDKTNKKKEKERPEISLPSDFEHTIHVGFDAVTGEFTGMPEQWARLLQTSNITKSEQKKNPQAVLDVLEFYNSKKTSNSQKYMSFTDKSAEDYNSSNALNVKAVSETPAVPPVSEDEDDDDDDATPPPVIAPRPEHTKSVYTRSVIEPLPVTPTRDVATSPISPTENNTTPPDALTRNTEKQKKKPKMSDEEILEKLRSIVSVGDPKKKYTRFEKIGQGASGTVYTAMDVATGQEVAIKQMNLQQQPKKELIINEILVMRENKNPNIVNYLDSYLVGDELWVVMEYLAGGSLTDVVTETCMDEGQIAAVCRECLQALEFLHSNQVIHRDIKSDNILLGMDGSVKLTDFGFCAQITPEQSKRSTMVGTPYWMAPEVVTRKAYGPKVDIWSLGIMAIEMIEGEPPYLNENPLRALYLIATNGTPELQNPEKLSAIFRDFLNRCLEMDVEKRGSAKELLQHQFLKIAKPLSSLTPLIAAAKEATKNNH
Sequence of ABL1 (P00519 whole entry): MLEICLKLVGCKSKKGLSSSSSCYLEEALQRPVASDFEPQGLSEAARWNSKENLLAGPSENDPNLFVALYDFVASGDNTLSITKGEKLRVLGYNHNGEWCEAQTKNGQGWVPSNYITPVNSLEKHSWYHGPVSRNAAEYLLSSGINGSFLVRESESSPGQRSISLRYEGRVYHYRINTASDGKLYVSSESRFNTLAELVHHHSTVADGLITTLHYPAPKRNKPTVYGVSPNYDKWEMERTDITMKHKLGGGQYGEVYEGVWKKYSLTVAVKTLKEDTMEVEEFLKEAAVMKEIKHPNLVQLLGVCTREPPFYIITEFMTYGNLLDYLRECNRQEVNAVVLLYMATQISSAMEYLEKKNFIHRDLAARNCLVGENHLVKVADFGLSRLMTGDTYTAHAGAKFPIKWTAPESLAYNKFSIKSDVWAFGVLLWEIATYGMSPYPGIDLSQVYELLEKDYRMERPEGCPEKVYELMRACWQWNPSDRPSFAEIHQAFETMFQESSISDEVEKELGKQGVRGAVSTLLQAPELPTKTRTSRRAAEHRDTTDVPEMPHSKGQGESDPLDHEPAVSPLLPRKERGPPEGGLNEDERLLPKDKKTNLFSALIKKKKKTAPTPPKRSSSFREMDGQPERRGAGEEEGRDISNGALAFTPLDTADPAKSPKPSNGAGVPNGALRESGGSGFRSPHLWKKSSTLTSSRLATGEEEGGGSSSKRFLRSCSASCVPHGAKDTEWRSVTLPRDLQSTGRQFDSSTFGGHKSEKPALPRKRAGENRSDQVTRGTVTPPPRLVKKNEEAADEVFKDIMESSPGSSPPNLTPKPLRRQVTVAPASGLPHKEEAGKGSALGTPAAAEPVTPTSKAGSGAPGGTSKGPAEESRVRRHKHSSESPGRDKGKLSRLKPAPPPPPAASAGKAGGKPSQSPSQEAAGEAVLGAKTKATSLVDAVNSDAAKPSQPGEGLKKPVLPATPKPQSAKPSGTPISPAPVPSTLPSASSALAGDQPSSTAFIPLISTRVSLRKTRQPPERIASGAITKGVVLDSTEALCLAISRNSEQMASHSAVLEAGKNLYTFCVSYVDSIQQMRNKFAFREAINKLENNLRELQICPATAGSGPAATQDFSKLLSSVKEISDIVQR
Sequence of EpHA3 (P29320 21-983): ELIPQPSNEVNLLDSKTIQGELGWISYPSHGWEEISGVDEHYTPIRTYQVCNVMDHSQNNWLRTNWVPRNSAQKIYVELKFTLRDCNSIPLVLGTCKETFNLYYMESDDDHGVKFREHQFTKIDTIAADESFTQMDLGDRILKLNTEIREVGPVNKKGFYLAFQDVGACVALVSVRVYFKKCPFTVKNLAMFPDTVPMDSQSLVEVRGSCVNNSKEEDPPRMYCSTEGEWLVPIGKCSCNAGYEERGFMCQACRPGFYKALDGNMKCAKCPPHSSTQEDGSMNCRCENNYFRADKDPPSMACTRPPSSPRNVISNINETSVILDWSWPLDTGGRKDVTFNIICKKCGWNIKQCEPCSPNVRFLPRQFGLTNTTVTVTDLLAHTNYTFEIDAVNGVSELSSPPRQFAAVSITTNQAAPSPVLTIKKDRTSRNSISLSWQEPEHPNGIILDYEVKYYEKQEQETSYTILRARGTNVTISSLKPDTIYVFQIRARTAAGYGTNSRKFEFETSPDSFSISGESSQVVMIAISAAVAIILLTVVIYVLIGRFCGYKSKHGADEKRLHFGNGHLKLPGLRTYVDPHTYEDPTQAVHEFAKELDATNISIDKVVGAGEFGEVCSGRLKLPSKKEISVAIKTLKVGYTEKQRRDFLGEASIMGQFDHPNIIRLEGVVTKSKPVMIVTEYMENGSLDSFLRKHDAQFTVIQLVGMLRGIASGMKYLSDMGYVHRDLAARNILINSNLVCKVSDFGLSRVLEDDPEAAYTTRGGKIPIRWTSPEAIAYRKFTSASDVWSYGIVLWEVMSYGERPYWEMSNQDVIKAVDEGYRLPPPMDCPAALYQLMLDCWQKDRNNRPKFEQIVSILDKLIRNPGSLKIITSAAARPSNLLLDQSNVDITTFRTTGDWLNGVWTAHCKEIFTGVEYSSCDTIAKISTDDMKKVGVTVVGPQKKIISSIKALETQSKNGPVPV
Sequence of MST4 (Q9P289 whole entry): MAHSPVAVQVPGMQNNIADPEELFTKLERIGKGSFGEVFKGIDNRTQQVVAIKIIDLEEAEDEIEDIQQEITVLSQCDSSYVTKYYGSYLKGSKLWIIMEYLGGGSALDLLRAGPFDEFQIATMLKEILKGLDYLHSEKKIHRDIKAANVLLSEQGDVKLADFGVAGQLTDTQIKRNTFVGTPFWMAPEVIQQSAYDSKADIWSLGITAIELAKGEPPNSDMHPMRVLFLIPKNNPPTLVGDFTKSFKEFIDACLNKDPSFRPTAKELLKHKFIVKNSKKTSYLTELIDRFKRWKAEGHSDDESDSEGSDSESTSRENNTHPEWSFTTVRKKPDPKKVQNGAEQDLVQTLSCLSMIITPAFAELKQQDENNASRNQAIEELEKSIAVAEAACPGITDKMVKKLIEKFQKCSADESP
Sequence of Erk3 (Q16659 whole entry): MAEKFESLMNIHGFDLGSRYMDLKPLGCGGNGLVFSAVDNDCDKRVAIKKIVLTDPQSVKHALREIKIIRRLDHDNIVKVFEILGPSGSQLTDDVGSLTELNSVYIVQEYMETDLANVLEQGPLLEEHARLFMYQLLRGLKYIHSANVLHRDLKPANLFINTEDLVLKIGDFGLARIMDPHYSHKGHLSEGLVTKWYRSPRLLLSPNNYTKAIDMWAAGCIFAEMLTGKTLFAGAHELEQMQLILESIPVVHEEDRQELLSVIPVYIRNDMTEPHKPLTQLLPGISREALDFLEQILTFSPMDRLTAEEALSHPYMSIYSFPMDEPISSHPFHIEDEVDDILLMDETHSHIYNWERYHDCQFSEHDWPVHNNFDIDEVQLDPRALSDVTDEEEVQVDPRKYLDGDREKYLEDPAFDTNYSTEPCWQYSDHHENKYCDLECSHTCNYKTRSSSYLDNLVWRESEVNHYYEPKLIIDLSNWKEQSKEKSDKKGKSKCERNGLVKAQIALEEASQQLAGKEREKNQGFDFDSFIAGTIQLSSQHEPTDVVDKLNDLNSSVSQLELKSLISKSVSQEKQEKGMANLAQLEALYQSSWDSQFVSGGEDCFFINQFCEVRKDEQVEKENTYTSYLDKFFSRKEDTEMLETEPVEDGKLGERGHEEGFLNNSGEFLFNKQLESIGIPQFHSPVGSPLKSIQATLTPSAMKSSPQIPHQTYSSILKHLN

IC50 [1]: > 1000 nM | ΔTm at 10 µM ([2]; read-out: ∆Tm 8): 0.7 °C | IC50 [3]: 82 ± 3 nM | IC50 [4]: > 1000 nM | IC50 [5]: 302 ± 26 nM
Compound: CNc1ncc2cc(-c3cc(Cl)ccc3Cl)c(=O)n(CCCCN)c2n1 [compound 8, 8-(4-Aminobutyl)-6-(2,5-dichlorophenyl)-2-(methylamino)pyrido[2,3-d]pyrimidin-7(8H)-one]

ΔTm at 10 µM ([2]; read-out: ∆Tm 11): 0.7 °C
Compound: CNc1ncc2cc(-c3cc(Br)ccc3Br)c(=O)n(CCCCN)c2n1 [compound 11, 8-(4-Aminobutyl)-6-(2,5-dibromophenyl)-2-(methylamino)pyrido[2,3-d]pyrimidin-7(8H)-one]

ΔTm at 10 µM ([6]; read-out: dTm MR22 (5)): 0.5 °C | IC50 [3, 9]: 145 ± 17 nM | IC50 [5, 9]: 632 ± 10 nM | ΔTm at 10 µM ([7]; read-out: ∆Tm MR22 (5)): 1.4 °C
Compound: CNc1ncc2cc(-c3cc(F)ccc3F)c(=O)n(CCCCN)c2n1 [compound 5, 8-(4-Aminobutyl)-6-(2,5-difluorophenyl)-2-(methylamino)pyrido[2,3-d]pyrimidin-7(8H)-one]

ΔTm at 10 µM ([2]; read-out: ∆Tm 10): 0.6 °C
Compound: CNc1ncc2cc(-c3cc(Cl)ccc3Br)c(=O)n(CCCCN)c2n1 [compound 10, 8-(4-Aminobutyl)-6-(2-bromo-5-chlorophenyl)-2-(methylamino)pyrido[2,3-d]pyrimidin-7(8H)-one]

dTm G-5555 (2) ([6]; 10 µM, binder): 0.3 °C | ∆Tm G-5555 (2) ([7]; 10 µM, binder): 6.1 degC | ∆Tm G-5555 (2) ([8]; 10 µM, binder): 6.9 degC
Compound: CNc1ncc2cc(-c3ccc(-c4cccc(C)n4)cc3Cl)c(=O)n(CC3OCC(N)CO3)c2n1 (stereo not shown) [compound 2, G-5555]

IC50 [1]: > 1000 nM | IC50 [3]: 12 ± 2 nM | IC50 [4]: 313 ± 121 nM | IC50 [5]: 78 ± 2 nM | ΔTm at 10 µM ([8]; read-out: ∆Tm MR21 (4)): 1 °C
Compound: CNc1ncc2cc(-c3ccccc3Cl)c(=O)n(CCCCN)c2n1 [compound 4, 8-(4-Aminobutyl)-6-(2-chlorophenyl)-2-(methylamino)pyrido[2,3-d]pyrimidin-7(8H)-one]
